From patent US20260101915A1, “APIGENIN GLYCOSIDES FLAVOR ENHANCERS” (priority 2019, published 2026)

Columns and labels:
[1] = Paired sensory difference test of whole wheat bread bitterness (20 panelists); format: in vivo; conditions: paired comparison, 20 participants, nose clips, bread crumb chewed 10 seconds; Pvalue <0.05
Source text: Twenty participants were recruited by Flavor Research and Education Center (FREC) at The Ohio State University. The whole wheat bread samples (control and treatment) were cut into 3 cm×2 cm×1 cm (L×W×H) squares of crumb the day before the test and stored at room temperature in sealed 2 oz cups labeled with a 3-digit codes. Each panelist evaluated one pair of samples containing the control sample and the treatment sample. Panelists used nose clips during the evaluation in order to prevent interactions with olfactory responses. Panelists were instructed to place the entire piece of bread crumb in their mouth, chew for 10 seconds, and evaluate the maximum bitter intensity perceived. After evaluating each sample in the pair, panelists were asked to choose the most bitter sample. The serving order of each bread sample was balanced. Water was used as a palate cleanser.
Compusense Cloud Software version 7.2 (Compusense, Guelph, Canada) was used for data collection. Approval of the sensory evaluation protocol was granted by the Ethics Committee, The Ohio State University (IRB #2019B0402). Paired Student t-tests was executed with SPSS Statistics Version 25 (International Business Machines Corp., Armonk, NY).

[2] = tested on: pinellic acid formation; test: Pinellic acid concentration in whole wheat bread (LC/MS/MS)
Protocol: (§1) The concentration of pinellic acid was analyzed for both control and treatment dough samples using the following method: The 15 mg of dough (or 27 mg of bread) was extracted with 1 mL 1:1 IPA/H2O (v/v) spiked with prostaglandin-F2α ([…]) ISTD. Samples were sonicated for 10 min followed by shaking using the GenoGrinder at 1000 rpm for 10 min. Samples were then diluted 1:50 and sample clean-up was carried out using a 96-well Oasis PRIME HLB plate (1 cc, 30 mg sorbent). After sample load (250 μL) and wash (750 μL, 10% acetonitrile (aq.) with 0.1% formic acid) steps, the retentate was eluted with 500 μL 90% acetonitrile (aq.) with 0.1% formic acid. Samples were further diluted to 2 mL using water with 0.1% formic acid. The standard calibration curve was prepared using 6-points ranging from 0.24 ng/ml to 500 ng/mL.
Quantitative analysis was conducted using MRM acquisition. LC/MS/MS analysis was conducted using a Waters ACQUITY H-class UPLC system coupled with a Xevo TQ-S mass spectrometer (Waters Co.). […]
Wheat breads were made using a modified AACC straight-dough bread-making method (AACC, 1999). […] The concentration of pinellic acid was analyzed for both control and spiking whole wheat bread samples as described for the dough analysis. […]

[3] = tested on: pinellic acid formation; test: Pinellic acid concentration in HRW Everest flour dough (LC/MS/MS); conditions: treatment dough (946.5 ng Schaftoside in 12 μL water per 15 mg HRW Everest flour) vs control; pvalue <0.05
Protocol: For the dough analysis 15 mg of Hard Red Winter (“HRW”) Everest flour was weighed into 2 Eppendorf tubes containing one ¼ inch stainless steel balls, followed by the addition of 12 μL of water (4:5 water/flour ratio) to make a control dough sample. The treatment dough sample was similarly prepared to the control sample with the exception that 946.5 ng of Schaftoside in 12 μL of water (4:5 water/flour ratio) was added instead of pure water.
as §1
Quantitative analysis was conducted using MRM acquisition. […]

Structure (SMILES): O=c1cc(-c2ccc(O)cc2)oc2c([C@@H]3OC[C@H](O)[C@H](O)[C@H]3O)c(O)c([C@@H]3O[C@H](CO)[C@@H](O)[C@H](O)[C@H]3O)c(O)c12 [Schaftoside, schaftoside]
- perceived bitterness of treatment bread vs control bread [1]: significantly less bitter
- pinellic acid concentration in treatment bread ([2]; schaftoside raised from 88.4 to 151.5 mg/kg (68.1 mg/kg flour added) prior to bread making, control bread 308.64 mg/kg, pvalue <0.05): 228.6 mg/kg
- reduction in pinellic acid formation ([2]; treatment vs control, schaftoside added to flour prior to bread making): 26%
- reduction in pinellic acid content [3]: 30%
